Laboratory results: paper PMC7697615, “Selective Interactions of O-Methylated Flavonoid Natural Products with Human Monoamine Oxidase-A and -B” (Molecules, 2020)
“Also recorded” adds a separate entry of the source. Like-named read-outs stand apart in the source and are kept apart here.

How the values were obtained:
MAO-A [1] = molecular target: T1, MAO-A (Homo sapiens, UniProt P21397); experiment: MAO inhibition assay (kynuramine oxidative deamination), MAO-A; assay type: biochemical; settings: for SI b (Selectivity index: MAO-A IC50/MAO-B IC50): ratio of IC50 values
T1 construct: purchased BD Biosciences (Bedford, MA, USA)
T1 sequence (P21397 1-527): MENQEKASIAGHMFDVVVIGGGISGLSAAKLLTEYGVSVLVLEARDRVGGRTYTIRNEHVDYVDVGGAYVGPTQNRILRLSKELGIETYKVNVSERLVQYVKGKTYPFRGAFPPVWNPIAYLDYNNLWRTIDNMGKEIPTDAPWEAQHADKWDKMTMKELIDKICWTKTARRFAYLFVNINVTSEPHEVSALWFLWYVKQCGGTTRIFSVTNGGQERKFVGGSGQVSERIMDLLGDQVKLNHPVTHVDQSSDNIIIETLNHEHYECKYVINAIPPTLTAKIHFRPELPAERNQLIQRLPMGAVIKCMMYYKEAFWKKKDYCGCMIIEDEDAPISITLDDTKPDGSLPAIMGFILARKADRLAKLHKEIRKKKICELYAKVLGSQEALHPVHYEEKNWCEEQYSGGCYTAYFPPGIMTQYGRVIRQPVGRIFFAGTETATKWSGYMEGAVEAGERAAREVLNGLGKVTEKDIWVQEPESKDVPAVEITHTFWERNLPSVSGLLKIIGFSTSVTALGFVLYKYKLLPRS
Description: In this study, we have investigated the effect of the isolated constituents (1–6) on human recombinant MAO-A and -B. The kynuramine oxidation deamination assay was performed in 96-well plates as previously reported, with modification. A fixed concentration of kynuramine substrate and varying concentrations of test compounds or inhibitor were used to determine the IC50 values. Kynuramine concentrations for MAO-A and -B were 80 μM and 50 μM, respectively. […] The enzymatic reactions were initiated by the addition of MAO-A (5 μg/mL) or -B (12.5 μg/mL), and incubated for 20 min at 37 °C. The enzyme reactions were terminated by the addition of 78 μL of 2N NaOH. The formation of 4-hydroxyquinoline (the enzyme reaction end product) was recorded fluorometrically on a SpectraMax M5 fluorescence plate reader (Molecular Devices, Sunnyvale, CA, USA) with an excitation (320 nm) and emission (380 nm) wavelength, using the Soft MaxPro-6 program. The inhibition effects of enzyme activity were calculated as the percent of product formation compared to the corresponding controls (enzyme–substrate reaction) without inhibitors. The assay controls, to define the interference of the test compounds with the fluorescence measurements, were set up simultaneously, and the enzyme or the substrate was added after stopping the reaction.
(§1) The dose–response enzyme-inhibition curves were generated using Microsoft® Excel and the IC50 values were computed with XLfit®.

MAO-A [2] = molecular target: T1, MAO-A; experiment: Enzyme kinetics and mechanism study (Lineweaver-Burk), MAO-A; assay type: biochemical; settings: for Type of Inhibition, Monoamine Oxidase-A: kinetics and dialysis
Description: (§3) Three sets of assays were completed at varying concentrations of the substrate for each experiment, one control without inhibitor and the others with two different concentrations of the inhibitor. The data were evaluated by double reciprocal Lineweaver-Burk plots for determination of the Ki (i.e., inhibition/binding affinity) values.
(§4) For determination of the binding affinity of the inhibitor (Ki) to MAO-A and -B, the enzyme assays were carried out at different concentrations of kynuramine substrate (1.90 μM to 500 μM) and varying concentrations of the inhibitors/compound. The flavonoids (1–6) were tested at 0.030–0.100 μM for MAO-A and 0.100–0.500 μM for -B. The controls without inhibitor were also run simultaneously. The results were analyzed by SigmaPlot version 10 using standard double reciprocal Lineweaver-Burk plots for computing Km and Vmax values, which were further analyzed to determine the Ki values [18, 36, 37].

MAO-B [3] = molecular target: T2, MAO-B (Homo sapiens, UniProt P27338); experiment: MAO inhibition assay (kynuramine oxidative deamination), MAO-B; assay type: biochemical; parameters: purchased BD Biosciences (Bedford, MA, USA); settings: kynuramine 50 μM; mean ± S.D. of at least triplicate observations
T2 sequence (P27338 1-520): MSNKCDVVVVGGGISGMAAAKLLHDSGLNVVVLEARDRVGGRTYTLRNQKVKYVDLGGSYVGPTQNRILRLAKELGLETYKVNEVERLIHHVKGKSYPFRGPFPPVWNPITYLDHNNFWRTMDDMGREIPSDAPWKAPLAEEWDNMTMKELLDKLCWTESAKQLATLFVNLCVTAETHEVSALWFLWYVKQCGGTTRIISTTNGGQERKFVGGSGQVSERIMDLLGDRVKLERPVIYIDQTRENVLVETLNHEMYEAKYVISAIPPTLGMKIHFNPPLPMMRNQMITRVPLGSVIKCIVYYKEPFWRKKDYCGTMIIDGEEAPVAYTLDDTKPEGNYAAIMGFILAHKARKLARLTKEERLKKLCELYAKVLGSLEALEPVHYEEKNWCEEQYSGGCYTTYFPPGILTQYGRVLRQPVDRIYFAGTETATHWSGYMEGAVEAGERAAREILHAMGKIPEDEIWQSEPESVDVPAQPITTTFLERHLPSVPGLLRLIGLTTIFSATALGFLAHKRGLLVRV
Description: In this study, we have investigated the effect of the isolated constituents (1–6) on human recombinant MAO-A and -B. The kynuramine oxidation deamination assay was performed in 96-well plates as previously reported, with modification. A fixed concentration of kynuramine substrate and varying concentrations of test compounds or inhibitor were used to determine the IC50 values. Kynuramine concentrations for MAO-A and -B were 80 μM and 50 μM, respectively. […] The enzyme reactions were terminated by the addition of 78 μL of 2N NaOH. The formation of 4-hydroxyquinoline (the enzyme reaction end product) was recorded fluorometrically on a SpectraMax M5 fluorescence plate reader (Molecular Devices, Sunnyvale, CA, USA) with an excitation (320 nm) and emission (380 nm) wavelength, using the Soft MaxPro-6 program. The inhibition effects of enzyme activity were calculated as the percent of product formation compared to the corresponding controls (enzyme–substrate reaction) without inhibitors. The assay controls, to define the interference of the test compounds with the fluorescence measurements, were set up simultaneously, and the enzyme or the substrate was added after stopping the reaction.
as §1

MAO-B [4] = molecular target: T2, MAO-B; experiment: Enzyme-inhibitor complex equilibrium dialysis assay, MAO-B; assay type: binding; parameters: purchased BD Biosciences (Bedford, MA, USA); settings: for MAO-B enzyme activity recovered after dialysis / inhibition at 50 µM: 50.0 μM; for inhibition at 50 µM: read-out: Inhibition of MAO-B activity on incubation (before dialysis); for Reversibility of binding with MAO-B: 20 min incubation, dialyzed overnight, 3, 4, 6 at 50.0 μM, deprenyl 0.500 μM
Description: (§2) Enzyme-inhibitors mostly produce inhibition of the target enzyme through the formation of an enzyme–inhibitor complex. The formation of the enzyme–inhibitor complex may be accelerated in the presence of a high concentration of the test inhibitor. The property of binding of test compounds to MAO-A or -B was determined by the formation of the enzyme–inhibitor complex by incubation of the enzyme with a high concentration of the test compound. This was followed by extensive equilibrium dialysis of the enzyme–inhibitor complex. Recovery of catalytic activity of MAO-A and -B was determined before and after the dialysis. […] After 20 min incubation at 37 °C, the reaction was stopped by chilling the tubes in an ice bath. […] All the samples with enzyme–inhibitor complex were individually dialyzed against potassium phosphate buffer (25 mM; pH 7.4) at 4 °C for 16–18 h (including three buffer changes). The control enzyme (without inhibitor) was also run through the same procedure and the activity of the enzyme was determined before and after the dialysis.

MAO-B [5] = molecular target: T2, MAO-B; experiment: Time-dependent inhibition assay, MAO-B; assay type: biochemical; parameters: purchased BD Biosciences (Bedford, MA, USA); settings: pre-incubation 0–15 min; 3 3.0 μM, 4 1.0 μM, 6 2.0 μM
Description: To investigate if the binding of the inhibitor with MAO-A and -B followed time-dependent inhibition kinetics, the enzyme was pre-incubated with the inhibitor for different time periods (0–15 min). […] The controls without inhibitors were also run simultaneously. The activities of the MAO-A and -B enzymes were determined as described above and the percentage of enzyme activity remaining was plotted against the pre-incubation time to determine time-dependent inhibition.

MAO-B [6] = molecular target: T2, MAO-B; experiment: Enzyme kinetics and mechanism study (Lineweaver-Burk), MAO-B; settings: for Type of Inhibition, Monoamine Oxidase-B: kinetics and dialysis
Description: as §3, §4

MAO-A [7] = molecular target: T1, MAO-A; experiment: Enzyme-inhibitor complex equilibrium dialysis assay, MAO-A; assay type: binding; settings: 20 min incubation, dialyzed overnight; 1 10.0 μM, 2 25.0 μM, 3 25.0 μM, 5 100.0 μM
Description: as §2

[8] = kynuramine 80 μM, mean ± S.D. of at least triplicate observations, read-out: MAO-A IC50
[9] = double reciprocal plots, mean ± SD of three observations, read-out: Ki, Monoamine Oxidase-A

Compound	IC50 (MAO-A [1]) [µM]	Selectivity for MAO-A vs. MAO-B (MAO-A [1])	SI b (Selectivity index: MAO-A IC50/MAO-B IC50) (MAO-A [1])	Ki (MAO-A [2]) [µM]	Type of Inhibition, Monoamine Oxidase-A (MAO-A [2])	IC50 (MAO-B [3]) [µM]	MAO-B enzyme activity recovered after dialysis (MAO-B [4]) [%]	inhibition at 50 µM (MAO-B [4]) [%]	Reversibility of binding with MAO-B (MAO-B [4])	Time dependence of MAO-B inhibition (MAO-B [5])	Ki (MAO-B [6]) [µM]	Type of Inhibition, Monoamine Oxidase-B (MAO-B [6])	IC50 (MAO-A [1]; [8]) [µM]	Ki (MAO-A [2]; [9]) [µM]	Reversibility of binding with MAO-A (MAO-A [7])	melting point [°C]
COc1cc(O)cc(O)c1C(=O)/C=C/c1ccccc1 [Compound 3, 2′,4′-dihydroxy-6′-methoxy-chalcone]	1.17 ± 0.513	~ 2 fold	0.432	0.633 ± 0.107	reversible-competitive; also recorded: Competitive/Reversible	2.7 ± 0.794	80	> 60	reversible; also recorded: reversibly	did not show time-dependent inhibition	1.24 ± 0.6	reversible and competitive	–	–	–	–
COc1ccc(-c2oc3cc(O)cc(O)c3c(=O)c2OC)cc1 [Compound 1, 3,4′-di-O-methylkaempferol]	–	> 292 fold	0.0034	–	reversible-competitive; also recorded: Competitive/Reversible	9.67 ± 2.31	–	–	–	–	–	–	0.033 ± 0.042	0.0379 ± 0.0008	–	–
COc1ccc(-c2oc3cc(O)cc(O)c3c(=O)c2O)cc1 [Compound 5, 4′-O-methylkaempferol]	–	–	–	–	partially-reversible mixed-type	> 100	–	–	–	–	–	–	1.35 ± 0.198	3.53 ± 0.265	partial reversibility; also recorded: partially reversible	–
COc1cc(O)c(C(=O)/C=C/c2ccccc2)c(OC)c1 [Compound 2, 2′-hydroxy-4′,6′-dimethoxy-chalcone]	–	–	–	–	Competitive/Reversible	5.93 ± 0.833	–	–	–	–	–	–	0.407 ± 0.075	0.339 ± 0.219	–	–
COc1cc2oc(-c3ccc(O)cc3)cc(=O)c2c(O)c1C [Compound 4, 8-demethylsideroxylin]	–	–	6.451	–	–	0.8 ± 0.18	80	> 60	reversible; also recorded: reversibly	did not show time-dependent inhibition	0.809 ± 0.093	reversible and competitive	5.17 ± 1.11	–	–	275 to 277
COc1cc(-c2cc(=O)c3c(O)cc(O)cc3o2)c(OC)c(OC)c1OC [Compound 6, 5,7-dihydroxy-2,3,4,5-tetramethoxyflavone]	–	–	100.0	–	–	0.875 ± 0.035	80	> 60	reversible; also recorded: reversibly	did not show time-dependent inhibition	0.874 ± 0.069	reversible and competitive	87.5 ± 3.54	–	–	–
